From article PMC10793205, “Differential transmetallation of complexes of the anti-cancer thiosemicarbazone, Dp4e4mT: effects on anti-proliferative efficacy, redox activity, oxy-myoglobin and oxy-hemoglobin oxidation” (Chemical Science, 2023)

Key:
SK-N-MC cells = experiment: MTT cellular proliferation assay, SK-N-MC neuroepithelioma cells; assay type: cell-based, human; settings: for IC50: SK-N-MC, 37 °C, MTT, mean ± SD (3 experiments); for Therapeutic index SK-N-MC: IC50 of MRC-5 cells/IC50 of SK-N-MC cells, 72 h/37 °C
Method: (§1) The anti-proliferative activity of Dp4e4mT relative to its complexes with Fe(III), Co(III), Ni(II), Cu(II), Zn(II), Ga(III), and Pd(II) was examined over incubation periods of 24-, 48-, and 72 h/37 °C (Table 2). These studies were performed using human SK-N-MC neuroepithelioma and AsPC-1 pancreatic adenocarcinoma cells that we have previously examined to assay other ligands.[15,28,43] […]
(§2) All cell lines were procured from the American Type Culture Collection (ATCC; Manassas, VA). The SK-N-MC neuroepithelioma cell line and the mortal MRC-5 fibroblasts were cultured in minimum essential medium (Sigma-Aldrich), while the AsPC-1 cell line was cultured in Roswell Park Memorial Institute 1640 medium (Thermo Fisher Scientific, MA, USA). Both media were supplemented with 10% fetal calf serum, non-essential amino acids (1 mM), sodium pyruvate (1 mM), L-glutamine (2 mM), penicillin (100 U/mL), streptomycin (100 U/mL), and Fungizone (0.5 µg/mL). Cells were maintained at 37 °C in an incubator under a humidified atmosphere with 5% CO 2, following established protocols. 11 Cellular Proliferation Assay
(§3) Cellular proliferation was evaluated through the established 3-(4,5-dimethylthiazol-2-yl)-2,5-diphenyltetrazolium bromide (MTT) proliferation assay, validated by viable cell counts.12 […]
(§4) Ligands and complexes were dissolved in DMSO to make a stock solution of 10 mM, subsequently diluted in culture media. For cell culture experiments, the DMSO's maximum concentration remained below 0.5% (v/v), with no discernible impact on proliferation.12 MTT […]
(§5) Trypan blue staining.12 Analysis of the data was executed employing MARS Data Analysis Software (BMG LabTech; version 3.30). The concentration of agents necessary to inhibit cellular proliferation by 50% (IC 50) was then calculated. […]

AsPC-1 cells = experiment: MTT cellular proliferation assay, AsPC-1 pancreatic adenocarcinoma cells; assay type: cell-based, human; settings: for IC50: 37 °C, MTT, mean ± SD (3 experiments); for Therapeutic index AsPC-1: IC50 of MRC-5 cells/IC50 of AsPC-1 cells, 72 h/37 °C
Method: as §1, §2, §3, §4, §5

MRC-5 fibroblasts = experiment: MTT cellular proliferation assay, mortal MRC-5 fibroblasts; assay type: cell-based; settings: 37 °C, mean ± SD (3 experiments)
Method: (§6) To examine the selectivity of the Dp4e4mT complexes against neoplastic versus normal mortal cells, their anti-proliferative efficacy was compared to mortal MRC-5 fibroblasts after a 72 h/37 °C incubation (Table 3). […] To further examine selectivity, an in vitro therapeutic index was calculated as per our previous investigations.[28,57,59,66,67] This parameter is derived from the ratio of the IC50 of MRC-5 cells/IC50 of SK-N-MC or AsPC-1 cells; with high ratios indicating greater selective anti-proliferative activity against neoplastic cells (Table 3). The mean therapeutic index is the average of the therapeutic indices calculated for both tumor cell-types. […] The mean therapeutic index of Dp4e4mT exceeded that obtained for clinically trialed DpC (157), as well as that of Dp44mT (112) and DFO (6). […]
as §2, §3, §4, §5

SK-N-MC and AsPC-1 cells = experiment: MTT cellular proliferation assay, values stated over both tumor cell-types; assay type: cell-based, human; settings: for Mean therapeutic index: average of the therapeutic indices for SK-N-MC and AsPC-1 vs MRC-5, 72 h/37 °C
Method: The anti-proliferative activity of Dp4e4mT relative to its complexes with Fe(III), Co(III), Ni(II), Cu(II), Zn(II), Ga(III), and Pd(II) was examined over incubation periods of 24-, 48-, and 72 h/37 °C (Table 2). These studies were performed using human SK-N-MC neuroepithelioma and AsPC-1 pancreatic adenocarcinoma cells that we have previously examined to assay other ligands.[15,28,43]
as §6, §2, §3, §4, §5

[1] = target: T1, oxy-Hb in intact human erythrocytes (Homo sapiens, UniProt P68871+P69905); experiment: Oxidation of oxy-Hb in intact human erythrocytes; assay type: cell-based; settings: 10 μM, 3 h/37 °C
T1 construct: Physiologically, oxy-Hb is found in erythrocytes; endogenous in cells; host or cells: intact human erythrocytes from fresh blood of healthy donors
Method: Fig. 7 (A and B) Investigation of the effects of Dp4e4mT and its Fe(III), Co(III), Ni(II), Cu(II), Zn(II), Ga(III), and Pd(II) complexes versus DFO, Dp44mT, DpC and their Fe(III) complexes (10 μM) on met-Hb generation (% zero time) after an incubation of 1–3 h/20 °C with purified oxy-Hb (40 μM). (C) Investigation of the effects of Dp4e4mT and its Fe(III), Co(III), Ni(II), Cu(II), Zn(II), Ga(III), or Pd(II) complexes relative to the positive controls DFO, Dp44mT, DpC, and their Fe(III) complexes (10 μM) on oxy-Hb oxidation in intact human erythrocytes after a 3 h/37 °C incubation. Results are mean ± SD (3 experiments).
Physiologically, oxy-Hb is found in erythrocytes, and in the current investigation, the ligands and complexes (10 μM) were incubated with intact human erythrocytes for 3 h/37 °C to assess their effects on oxy-Hb oxidation (Fig. 7C). As expected from our previous studies,[28,39] […]
In experiments examining the activity of the agents, all complexes were dissolved in 1,2-propanediol, then diluted to 10 µM in PBS (pH 7.2). […]
1800; Shimadzu, Kyoto, Japan). Concentrations of met-Mb and met-Hb, as well as reduced-Mb and reduced-Hb, were determined at 409 nm and 435 nm, respectively. Concentrations of oxy-Mb and oxy-Hb were determined at 544 nm and 582 nm, respectively. 17 Oxidation of Oxy-Hb in Human Erythrocytes
Oxidation of oxy-Hb in human erythrocytes was performed by standard methods using fresh blood from healthy donors after collection in Vacutainer® collection tubes (BD, Plymouth, UK).8 Erythrocytes centrifuged (480 xg/5 min/4°C) and then washed in HBSS, and subsequently resuspended in this buffer. Incubation of the erythrocytes (15% hematocrit) in the absence or presence of the agents (10 μM) was performed for 3 h/37°C. The erythrocytes were […]

T1 sequence (P69905 2-142 limits assumed): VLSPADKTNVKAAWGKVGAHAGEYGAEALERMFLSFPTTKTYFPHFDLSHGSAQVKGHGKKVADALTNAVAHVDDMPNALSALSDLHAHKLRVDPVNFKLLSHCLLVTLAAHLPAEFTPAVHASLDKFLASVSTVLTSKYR
T1 sequence (P68871 2-147 limits assumed): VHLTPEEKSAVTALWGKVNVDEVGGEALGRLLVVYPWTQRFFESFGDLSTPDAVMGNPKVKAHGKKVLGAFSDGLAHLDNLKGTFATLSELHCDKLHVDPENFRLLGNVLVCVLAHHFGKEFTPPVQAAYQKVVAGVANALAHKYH

IC50 (SK-N-MC cells; Homo sapiens, 24 h) [nM] | IC50 (SK-N-MC cells; Homo sapiens, 48 h) [nM] | IC50 (SK-N-MC cells; Homo sapiens, 72 h) [nM] | IC50 (AsPC-1 cells; Homo sapiens, ASPC1, AsPC-1, 24 h) [nM] | IC50 (AsPC-1 cells; Homo sapiens, ASPC1, AsPC-1, 48 h) [nM] | IC50 (AsPC-1 cells; Homo sapiens, ASPC1, AsPC-1, 72 h) [nM] | IC50 (SK-N-MC and AsPC-1 cells; Homo sapiens, SK-N-MC and AsPC-1, after 72 h, read-out: IC50 (range over both cell-types)) [nM] | IC50 (SK-N-MC cells; 24 h) [nM] | IC50 (SK-N-MC cells; 48 h) [nM] | IC50 (SK-N-MC cells; 72 h) [nM] | IC50 (AsPC-1 cells; AsPC-1, 24 h) [nM] | IC50 (AsPC-1 cells; AsPC-1, 48 h) [nM] | IC50 (AsPC-1 cells; AsPC-1, 72 h) [nM] | SMILES | Therapeutic index SK-N-MC (SK-N-MC cells) | Therapeutic index AsPC-1 (AsPC-1 cells) | IC50 (MRC-5 fibroblasts; Homo sapiens, MRC5, MRC-5, 72 h) [nM] | Mean therapeutic index (SK-N-MC and AsPC-1 cells) | oxy-Hb oxidation in erythrocytes versus the control (in words) [1] | IC50 (MRC-5 fibroblasts; MRC-5, 72 h) [nM]
> 100000 | 45270 ± 61 | 8180 ± 2460 | > 100000 | 22760 ± 84 | 3070 ± 585 | 3070 to 8180 | – | – | – | – | – | – | CC(=O)N(O)CCCCCNC(=O)CCC(=O)N(O)CCCCCNC(=O)CCC(=O)N(O)CCCCCN [DFO, desferrioxamine, reference compound] | 3 | 9 | 28910 ± 101 | 6 | did not induce any significant (p > 0.05) increase in oxy-Hb oxidation | –
– | – | – | – | – | – | – | 516 ± 6 | 34 ± 6 | 4 ± 1 | 1140 ± 34 | 44 ± 7 | 3 ± 3 | CCN(C)C([S-])=NN=C(c1ccccn1)c1ccccn1.CCN(C)C([S-])=NN=C(c1ccccn1)c1ccccn1.[Cu+2] [[Cu(Dp4e4mT)2]] | 85 | 113 | – | 99 | negligible effects on oxy-Hb oxidation | 342 ± 121
